# Active and inactive are the calls of the source. No cut-off for these calls is given here.
# Experiments:
# [1] = test system: Staphylococcus aureus; assay: Antibacterial activity against Staphylococcus aureus ATCC29213 assessed as reduction in bacterial growth; type: functional
# [2] = test system: Staphylococcus aureus; assay: Antibacterial activity against methicillin-resistant Staphylococcus aureus N315 assessed as reduction in bacterial growth; type: functional
# [3] = test system: Staphylococcus aureus; assay: Antibacterial activity against methicillin-resistant Staphylococcus aureus NCTC 10442 assessed as reduction in bacterial growth; type: functional
# [4] = test system: Escherichia coli; assay: Antibacterial activity against Escherichia coli ATCC25922 assessed as reduction in bacterial growth; type: functional
# [5] = Hemolytic activity in rabbit erythrocytes assessed as concentration required to cause 50% hemolysis; type: ADME, cell-based, Oryctolagus cuniculus, Erythrocyte
# [6] = test system: Staphylococcus aureus; assay: Induction of drug resistance in Staphylococcus aureus ATCC29213 assessed as reduction in bacterial growth at 0.5 times MIC measured after 24 hr; type: functional, organism-based
# [7] = test system: Staphylococcus aureus; assay: Bactericidal activity against Staphylococcus aureus NCTC 10442 assessed as log reduction in bacterial growth at 4X MIC measured within 0.5 hr by time-kill kinetic assay; type: functional; conditions: time hrs <=0.5
# [8] = test system: Staphylococcus aureus; assay: In vivo antibacterial activity against Staphylococcus aureus ATCC29213 in mouse bacterial keratitis model assessed as log reduction in bacterial load in infected cornea at 5%,TOP after 24 hour infection; type: functional, organism-based
SMILES,MIC [1] [µg/mL],MIC [2] [µg/mL],MIC [3] [µg/mL],MIC [4] [µg/mL],HC50 [5] [µg/mL],Activity [6],log reduction [7] [log10 CFU/mL],Activity [8]
CC(C)=CCC/C(C)=C/Cn1cc(CC(=O)N[C@@H](CCCNC(=N)N)C(=O)N[C@@H](CCCNC(=N)N)C(N)=O)c2ccccc21,3.12,3.12,3.12,50,> 200,–,–,–
CC(C)=CCC/C(C)=C/Cn1cc(CC(=O)NCCN(CCN)CCN)c2ccccc21,1.56,1.56,1.56,25,208,–,–,–
COC(=O)[C@H](Cc1c[nH]cn1)NC(=O)Cc1cn(C/C=C(\C)CCC=C(C)C)c2ccccc12,> 50,> 50,> 50,> 100,> 200,–,–,–
CCCCN(CCCC)CCCNC(=O)Cc1cn(C/C=C(\C)CCC=C(C)C)c2ccccc12,3.12,3.12,3.12,> 100,72.3,–,–,–
COC(=O)[C@H](CCCNC(=N)N)NC(=O)[C@H](CCCNC(=N)N)NC(=O)[C@H](CCCNC(=N)N)NC(=O)Cc1cn(C/C=C(\C)CCC=C(C)C)c2ccccc12,3.12,1.56,1.56,50,> 200,–,–,–
CC(C)=CCn1cc(CC(=O)NCCCN)c2ccccc21,> 50,> 50,> 50,> 100,> 200,–,–,–
COC(=O)[C@H](CCCNC(=N)N)NC(=O)Cc1cn(CC=C(C)C)c2ccccc12,50,50,50,> 100,> 200,–,–,–
COC(=O)[C@H](CCCNC(=N)N)NC(=O)[C@H](CCCNC(=N)N)NC(=O)Cc1cn(C/C=C(\C)CCC=C(C)C)c2ccccc12,3.12,3.12,1.56,50,> 200,–,–,–
CCn1cc(C(=O)O)c(=O)c2cc(F)c(N3CCNCC3)cc21,–,–,–,–,–,Active,–,–
CC(C)=CCC/C(C)=C/Cn1cc(CC(=O)NCCCN(C)C)c2ccccc21,6.25,3.12,6.25,12.5,55.1,–,–,–
CC(C)=CCn1cc(CC(=O)NCCCNC(=N)N)c2ccccc21,50,50,50,> 100,> 200,–,–,–
CC(C)=CCC/C(C)=C/Cn1cc(CC(=O)NCCCNC(=N)N)c2ccccc21,1.56,1.56,1.56,12.5,733,–,–,–
CC(C)=CCn1cc(CC(=O)N[C@@H](CCCNC(=N)N)C(N)=O)c2ccccc21,> 50,> 50,> 50,> 100,> 200,–,–,–
CN[C@H](CC(C)C)C(=O)N[C@H]1C(=O)N[C@@H](CC(N)=O)C(=O)N[C@H]2C(=O)N[C@H]3C(=O)N[C@H](C(=O)N[C@H](C(=O)O)c4cc(O)cc(O)c4-c4cc3ccc4O)[C@H](O)c3ccc(c(Cl)c3)Oc3cc2cc(c3O[C@@H]2O[C@H](CO)[C@@H](O)[C@H](O)[C@H]2O[C@H]2C[C@](C)(N)[C@H](O)[C@H](C)O2)Oc2ccc(cc2Cl)[C@H]1O [VANCOMYCIN],0.78,1.56,1.56,–,–,–,0.5,Active
CC(C)=CCC/C(C)=C/Cn1cc(CC(=O)NCCCN2CCCC2)c2ccccc21,6.25,6.25,6.25,50,47.6,–,–,–
NC[C@H]1O[C@H](O[C@H]2[C@H](O)[C@@H](O[C@H]3O[C@H](CO)[C@@H](O)[C@H](N)[C@H]3O)[C@H](N)C[C@@H]2N)[C@H](O)[C@@H](O)[C@@H]1O [KANAMYCIN],–,–,–,6.25,–,–,–,–
COC(=O)[C@H](CCCNC(=N)N)NC(=O)Cc1cn(C/C=C(\C)CCC=C(C)C)c2ccccc12,3.12,3.12,3.12,12.5,58.8,–,–,–
CC(C)=CCC/C(C)=C/Cn1cc(CC(=O)NCCCN)c2ccccc21,12.5,6.25,12.5,12.5,178,–,–,–
CC(C)=CCC/C(C)=C/Cn1cc(CC(=O)N[C@@H](CCCNC(=N)N)C(N)=O)c2ccccc21,3.12,3.12,3.12,25,119,–,–,–
CCOC(=O)Cc1c[nH]c2ccccc12,> 50,> 50,> 50,> 100,> 200,–,–,–
CCOC(=O)Cc1cn(C/C=C(\C)CCC=C(C)C)c2ccccc12,> 50,> 50,> 50,> 100,> 200,–,–,–
CCCCCCCCCCn1cc(CC(=O)NCCN(CCN)CCN)c2ccccc21,1.56,1.56,1.56,12.5,95.9,–,–,–
C=CCCCCCn1cc(CC(=O)NCCN(CCN)CCN)c2ccccc21,12.5,12.5,25,> 50,140,–,–,–

# Source: ChEMBL document CHEMBL5036339, “Synthesis and biological evaluation of indole-based peptidomimetics as antibacterial agents against Gram-positive bacteria” (Eur J Med Chem, 2021)
